Test results as given in patent publication US8680102B2, “Pyrrole derivatives, their preparation and their therapeutic application” (Sanofi, priority 2008, dated 2014).

What was measured:
[1] = molecular target: T1, CB1 receptors present in the brain (Mus musculus, UniProt P47746); test: Measurement (3): blocking of the hypothermic effect induced by CP55940; type: in vivo; design: from tissue; host or cells: whole animal, in vivo (brain CB1); details: iv route at 10 mg/kg
[2] = Measurement (1): quantification of compound in brain and plasma by LC-MS/MS; type: in vivo; details: iv route at 3 mg/kg, mouse, read-out: Ratio: Quantity present in the brain / Quantity present in the plasma
[3] = molecular target: T1, CB1 receptors present in the brain; test: Measurement (2): ex vivo test of binding of [3H]-CP55940 in the brain; design: the CB1 receptors present in the brain in mice; from tissue; host or cells: mouse brain, after intravenous administration; details: iv route at 10 mg/kg, mice
[4] = molecular target: T2, CB1 receptors present at the periphery (Mus musculus, UniProt P47746); test: blocking of the inhibitory effect of CP55940 on the gastrointestinal transit; type: in vivo; details: po route at 10 mg/kg, mice
T2 construct: from tissue; host or cells: whole mouse, in vivo (peripheral / gastrointestinal CB1)
Description: A percentage reversion of the effect of CP55940 greater than 50% at 10 mg/kg indicates a significant antagonist power at the level of the CB1 receptors present at the periphery.

T2 sequence (P47746 whole entry): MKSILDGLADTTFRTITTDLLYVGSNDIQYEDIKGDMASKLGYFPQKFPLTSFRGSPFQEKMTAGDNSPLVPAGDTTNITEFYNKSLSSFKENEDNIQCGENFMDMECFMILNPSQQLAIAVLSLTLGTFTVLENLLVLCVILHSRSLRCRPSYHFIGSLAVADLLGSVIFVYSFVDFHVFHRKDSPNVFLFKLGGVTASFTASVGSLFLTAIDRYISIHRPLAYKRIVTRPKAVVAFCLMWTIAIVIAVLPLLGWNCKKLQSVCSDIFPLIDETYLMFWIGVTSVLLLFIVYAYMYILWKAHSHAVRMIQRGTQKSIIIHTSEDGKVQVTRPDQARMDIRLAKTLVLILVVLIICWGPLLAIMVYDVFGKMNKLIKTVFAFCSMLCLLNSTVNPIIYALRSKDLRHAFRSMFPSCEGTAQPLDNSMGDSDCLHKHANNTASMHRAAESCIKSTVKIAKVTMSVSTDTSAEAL
T1 sequence (P47746 whole entry): as above

| % reversion of the hypothermic effect of CP55940 [1] | Kp [2] | inhibition at 10 mg/kg [3] | % reversion of the effect of CP55940 on the GIT [4] | Compound |
| --- | --- | --- | --- | --- |
| 32% | 0.06 | 21% | 74% | NC(=O)C1(c2ccc(Cl)cc2)CCN(C(=O)c2cc(-c3ccc(Cl)cc3Cl)n(-c3ccc(Cl)cc3)c2CCCO)CC1 [compound 30, 4-(4-chlorophenyl)-1-{[1-(4-chlorophenyl)-5-(2,4-dichlorophenyl)-2-(3-hydroxypropyl)-1H-pyrrol-3-yl]carbonyl}piperidine-4-carboxamide] |
| 60% |  | 23% | 97% | NC(=O)C1(N2CCC(F)(F)CC2)CCN(C(=O)c2cc(-c3ccc(Cl)cc3Cl)n(-c3ccc(Cl)cc3)c2CCCCO)CC1 [compound 17, 1′-{[1-(4-chlorophenyl)-5-(2,4-dichlorophenyl)-2-(4-hydroxybutyl)-1H-pyrrol-3-yl]carbonyl}-4,4-difluoro-1,4′-bipiperidine-4′-carboxamide] |
| 60% |  | 27% | 85% | NC(=O)C1(c2ccccc2)CCN(C(=O)c2cc(-c3ccc(Cl)cc3Cl)n(-c3ccc(Cl)cc3)c2CCO)CC1 [compound 14, 1-{[1-(4-chlorophenyl)-5-(2,4-dichlorophenyl)-2-(2-hydroxyethyl)-1H-pyrrol-3-yl]carbonyl}-4-phenylpiperidine-4-carboxamide] |
| 58% |  | 5% | 100% | NC(=O)C1(c2ccccc2)CCN(C(=O)c2cc(-c3ccc(Cl)cc3Cl)n(-c3ccc(Cl)cc3)c2CCCCO)CC1 [compound 13, 1-{[1-(4-chlorophenyl)-5-(2,4-dichlorophenyl)-2-(4-hydroxybutyl)-1H-pyrrol-3-yl]carbonyl}-4-phenylpiperidine-4-carboxamide] |
